{"source": "patent US20130064901A1", "about": "“GENE EXPRESSION PROFILING FOR CLASSIFYING AND TREATING GASTRIC CANCER” (Agency for Science, Technology and Research, priority 2011, published 2013)", "key": {"[1]": {"tested_on": "G-INT gastric cancer cell lines", "assay": "In vitro cell proliferation assay (MTS), G-INT cell lines", "assay_type": "cell-based, human", "conditions": "for In vitro sensitivity of G-INT versus G-DIF cell lines: 28 cell lines (11 G-INT and 17 G-DIF) treated with increasing concentrations; for GI50: mean of 11 G-INT cell lines, drug concentration at which 50% growth inhibition is achieved, read-out: Mean GI-50 concentration", "experimental": "(§1) Cell proliferation assays were performed using a tetrazolium compound-based colorimetric method. Adherent or semi-adherent cell lines with doubling times less than 48 hours were used in this analysis. The cell lines for which cell proliferation assays were performed are: YCC19, YCC18, TMK1, YCC2, CLS145, YCC9, YCC6, NUGC3, HGC-27, Fu97, Ist1, YCC7, YCC16, Hs746T, MKN45, KatoIII, AGS, SNU719, AZ521, YCC1, MKN1, YCC11, IM95, MKN7, YCC3, YCC10, SCH and N87. Cell proliferation assays were performed using a tetrazolium compound-based colorimetric method (MTS kit, Promega, Madison, Wis., USA) according to the manufacturer's instructions and measured using an EnVision 2104 multilabel plate reader (Perkin Elmer, Finland) at 490 nm. Inhibition of cell growth by drugs was also visually confirmed under microscopy. Drugs used include cisplatin (Sigma, 479306-1G), oxaliplatin (Sigma, O9512), 5-Fluorouracil (Sigma, F6627-1G).\n(§2) Of the 37 cell lines, 28 cell lines (11 G-INT and 17 G-DIF) had growth characteristics suitable for in vitro drug sensitivity testing. 5-FU, oxaliplatin and cisplatin are drugs presently employed in the adjuvant and 1st line palliative treatment of GC. The 28 cell lines were treated with increasing concentrations of these drugs."}, "[2]": {"tested_on": "GC subsets", "conditions": "INT-0116, ten-year update subgroup analysis; cited from earlier work"}, "[3]": {"tested_on": "G-DIF gastric cancer cell lines", "assay": "In vitro cell proliferation assay (MTS), G-DIF cell lines", "assay_type": "cell-based, human", "conditions": "mean of 17 G-DIF cell lines, drug concentration at which 50% growth inhibition is achieved, read-out: Mean GI-50 concentration", "experimental": "as §1, §2"}}, "note": "“Also recorded” adds a separate entry of the source. Like-named read-outs stand apart in the source and are kept apart here."}
{"smiles": "O=c1[nH]cc(F)c(=O)[nH]1", "note": "[5-FU, 5-Fluorouracil]", "values": [{"measurement": "In vitro sensitivity of G-INT versus G-DIF cell lines", "setting": "[1]", "value": "G-INT cell lines were significantly more sensitive"}, {"measurement": "GI50", "setting": "[1]; Homo sapiens", "value": 5.2, "unit": "µM"}, {"measurement": "Benefit from 5-FU therapy by GC subset", "setting": "[2]", "value": "all GC subsets benefited from 5-FU therapy except for cases with diffuse histology"}, {"measurement": "GI50", "setting": "[3]; Homo sapiens", "value": 23.2, "unit": "µM"}]}
{"smiles": "N.N.[Cl][Pt][Cl]", "note": "[cisplatin]", "values": [{"measurement": "In vitro sensitivity of G-INT versus G-DIF cell lines", "setting": "[1]", "value": "G-DIF cell lines were more sensitive; also recorded: more resistant"}, {"measurement": "GI50", "setting": "[1]", "value": 38.6, "unit": "µM"}, {"measurement": "GI50", "setting": "[3]", "value": 13.3, "unit": "µM"}]}
{"smiles": "O=C1[O][Pt]2([NH][C@@H]3CCCC[C@H]3[NH]2)[O]C1=O", "note": "[oxaliplatin]", "values": [{"measurement": "In vitro sensitivity of G-INT versus G-DIF cell lines", "setting": "[1]", "value": "G-INT cell lines were significantly more sensitive"}, {"measurement": "GI50", "setting": "[1]", "value": 1.33, "unit": "µM"}, {"measurement": "GI50", "setting": "[3]", "value": 5.49, "unit": "µM"}]}
